The results in this text go back to the METLIN SMRT retention time set (Domingo-Almenara et al. 2019).

This data set in a line: gradient 5% acetonitrile 3 min, to 50% in 2 min, to 85% in 15 min, held 3 min, 100 µL/min. To be noted: column: Zorbax Extend-C18 2.1 x 50 mm; eluents: water / acetonitrile, 0.1% formic acid. A digest of the protocol: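 Values are retention times taken from adduct peaks that software picked and an analyst inspected. The pure standards were run as mixtures of ~100 molecules on HPLC linked to a quadrupole time-of-flight mass spectrometer, in positive and negative ionization mode. A Zorbax Extend-C18 column (2.1 × 50 mm, 1.8 μm) was used at 100 μL/min with water and acetonitrile, each including 0.1% formic acid.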
Take `CCCn1c(CCc2ccccc2NS(=O)(=O)c2cnn(CC)c2)nc2ccccc21`: the RP-LC retention time worked out at 680 s.

On to `COCCc1noc(-c2nc(-c3ccc(OC)c(OC)c3)no2)n1`, for which the RP-LC retention time was 892 s.

As for `COc1cc(C(=O)N2CCCN(c3cc(=O)n(C)c(=O)n3C)CC2)cc(OC)c1OC`, the RP-LC retention time was found to be 624 s.

`COc1ccc(Cl)cc1S(=O)(=O)N1CCCC(C(=O)Nc2ccccc2)C1` (stereo unspecified) yielded an RP-LC retention time of 967 s.

For `O=C(Nc1cnn(-c2ncncc2N2CCOCC2)c1)c1cc2c(s1)CCCC2`, the RP-LC retention time worked out at 789 s.

As to `O=C(Nc1cc(-c2ccsc2)no1)c1ccc(Br)o1`, the RP-LC retention time was determined as 927 s.

In turn, `CSc1nc(Nc2cccc(Cl)c2)c(C#N)c(-c2ccccc2)n1` gave an RP-LC retention time of 1280 s.

Turning to `CCOc1cccc(CN2C[C@@H]3C(=O)N(Cc4ccc5c(c4)OCO5)C(=O)[C@@H]3C2)c1`, the RP-LC retention time stood at 770 s.

Consider `Cc1ccccc1Nc1c(-c2ccccc2F)nc2ccccn12`, for which the RP-LC retention time came to 707 s.

`Cc1ccc(-c2ccc(N3CCCC(C(=O)NCc4ccc5c(c4)OCO5)C3)nn2)cc1C` (stereo unspecified) showed an RP-LC retention time of 763 s.

In turn, `O=C(c1c[nH]c2ccccc12)N1CCCCC1c1nc(C2CC2)no1` (stereo unspecified) registered an RP-LC retention time of 866 s.

For `O=C1CC(c2noc(C3CCC3)n2)CN1c1ccccc1` (stereo unspecified), the RP-LC retention time is 869 s.

The compound `Cc1oc(C2CCC2)nc1C(=O)NCc1cccc(C(F)(F)F)c1` had an RP-LC retention time of 1110 s.

As to `COC(=O)c1c(C)c(C(=O)C(C)N(Cc2ccc(F)cc2)C(=O)C2CCC2)c(C)n1C` (stereo unspecified), the RP-LC retention time amounted to 1040 s.

In the case of `Cc1ccc(S(=O)(=O)N2CC(=O)N(C3CCCC3)C3(CCCCC3)C2)c(C)c1`, the RP-LC retention time is 1270 s.

For the compound `CCN(CCN(C)C)C(=O)CN1C(=O)C(Oc2ccc(F)cc2)C12CCCCC2` (stereo unspecified), the RP-LC retention time was found to be 724 s.

Compound `CC(C)Oc1ccc(CNC(=O)CCCN2C(=O)CCn3nc(-c4cccn4C)cc32)cc1` had an RP-LC retention time of 833 s.

`Fc1ccc(Cl)cc1-c1nc(Nc2ccncc2)c2nccnc2n1` registered an RP-LC retention time of 648 s.

With `COc1ccccc1OCC(O)COC(N)=O` (stereo unspecified), the RP-LC retention time worked out at 650 s.

With `COc1ccc(C2CC(=O)N(c3ccc(Cl)cc3)C(=O)C2)cc1OC`, the RP-LC retention time is 859 s.

Turning to `CN(C)C(=O)CN1C(=O)COc2ccc(C(=O)N3CCN(c4ccccc4)CC3)cc21`, the RP-LC retention time came to 702 s.

Turning to `CCc1cc(-c2csc(S(=O)(=O)N3CCN(C4CCCCC4)CC3)c2)on1`, the RP-LC retention time turned out to be 723 s.

As for `CCCCS(=O)CC(CO)NC(=O)/C=C/c1c(C)[nH]c(=O)[nH]c1=O` (stereo unspecified), the RP-LC retention time came to 569 s.

Regarding `CN(C)S(=O)(=O)c1ccc2c(c1)N(CC(=O)N1CCN(c3ccccn3)CC1)CCS2`, the RP-LC retention time came out at 640 s.

`O=C(Nc1ccc(Cl)cc1)N1CCc2nc[nH]c2C1` yielded an RP-LC retention time of 594 s.

`COc1ccc2[nH]c(=O)c(CCC(=O)N3CCN(c4ccccn4)CC3)cc2c1` registered an RP-LC retention time of 568 s.

Compound `CCc1nnc(-c2cc(C)n(CC(=O)Nc3cc(C)cc(C)c3)c2C)o1` displayed an RP-LC retention time of 887 s.

`Cc1ccc(S(=O)(=O)N2C[C@@H](F)C[C@H]2C(=O)N2CCc3ccccc3C2)cc1C` displayed an RP-LC retention time of 973 s.

In turn, `COc1ccc(NC(=O)N2CCC(n3c(C(F)(F)F)nc4cccnc43)CC2)cc1` had an RP-LC retention time of 898 s.

For `CC(C)n1c(=O)sc2cc(S(=O)(=O)N3CCC(C(=O)NCCN4CCCC4)CC3)ccc21`, the RP-LC retention time was found to be 648 s.

`COc1cccc(C2CC(c3ccc(F)cc3)=NC3(CCN(C(C)C)CC3)N2)c1O` (stereo unspecified): the RP-LC retention time is 608 s.

As to `CCOC(=O)c1c(C)[nH]c(C(=O)N2CCC(C(C)C(=O)N3CCN(c4ccccc4)CC3)CC2)c1C` (stereo unspecified), the RP-LC retention time worked out at 871 s.

`O=C1CC(c2nc(-c3cccc(Cl)c3)no2)CN1c1ccc2c(c1)OCCO2` (stereo unspecified) yielded an RP-LC retention time of 1000 s.

Compound `CCOc1ccc(NC(=O)C2CCN(S(C)(=O)=O)c3cc(C)ccc3O2)cc1` (stereo unspecified) had an RP-LC retention time of 972 s.

The compound `O=C1C2N=NN(Cc3nc(-c4ccccc4)no3)C2C(=O)N1c1ccc(F)cc1` (stereo unspecified) came in with an RP-LC retention time of 945 s.

The compound `CCOC(=O)c1noc2ncnc(N3CCC(c4ccccc4)C3)c12` (stereo unspecified) returned an RP-LC retention time of 1030 s.

`O=C1CN(C(=O)c2ccccc2F)c2ccccc2N1` showed an RP-LC retention time of 645 s.

Regarding `Cc1nc(C(=O)NCC(=O)O)c(O)c2ccc(Oc3ccccc3)cc12`, the RP-LC retention time came out at 793 s.

Turning to `CC(C)CNC(=O)CCn1c(=O)c2ccccc2n2c(=O)n(Cc3cccc(F)c3)nc12`, the RP-LC retention time was found to be 867 s.

The compound `COc1cnc(SC)nc1Nc1ccc(C#N)cc1` gave an RP-LC retention time of 853 s.

Regarding `O=C(c1cccs1)N1CCN(c2ccc(-c3noc(C4CC4)n3)cc2)CC1`, the RP-LC retention time was 949 s.

Compound `COc1ccc(-c2cn3c(CC(=O)N4c5ccccc5CC4C)csc3n2)cc1OC` (stereo unspecified) had an RP-LC retention time of 797 s.

For the compound `Cn1c(=O)sc2cc(S(=O)(=O)N3CCC(C(=O)NC4CCCCC4)CC3)ccc21`, the RP-LC retention time is 822 s.

The compound `CN(C)CCNC(=O)c1ccc2c(c1)N(Cc1ccc(F)cc1)C(=O)CO2` displayed an RP-LC retention time of 616 s.

Turning to `O=C(Cc1nnc(-c2ccccc2)o1)NCC1CC1`, the RP-LC retention time amounted to 684 s.

`Cc1ccc(F)c2c(=O)c3c([nH]c12)CCN(CC(=O)Nc1ccc(Cl)cc1)C3` returned an RP-LC retention time of 646 s.

Turning to `COCCNC(=O)C1CCN(c2nc3ccc(-c4cccc(OC)c4)nc3s2)CC1`, the RP-LC retention time is 804 s.

Consider `COc1ccc(Cl)cc1N1C=C(C#N)S(=O)(=O)c2ccccc21`, for which the RP-LC retention time was determined as 918 s.

Consider `COc1ccc(Cl)cc1C(=O)N1CCN(c2ccc(-c3nc(C)cs3)cn2)CC1`, for which the RP-LC retention time was determined as 909 s.

For the compound `Cc1ccc(C(=O)CC2(O)C(=O)Nc3ccc(C)cc32)cc1` (stereo unspecified), the RP-LC retention time was found to be 755 s.

Turning to `CCOC(=O)CCNC(=O)NCc1nnnn1-c1ccc(OCC)cc1`, the RP-LC retention time was 675 s.

Consider `COc1cc2c(cc1O)CCC1C2CC[C@@]2(C)C1CC[C@@H]2O` (stereo partly specified), for which the RP-LC retention time came to 836 s.

In the case of `COc1ccc2c(c1)C1(CCN(S(=O)(=O)c3ccc(F)cc3F)C1)C(=O)N2C` (stereo unspecified), the RP-LC retention time was 927 s.

Compound `COCC(=O)Nc1ccccc1NC(=O)c1ccco1` came in with an RP-LC retention time of 618 s.

As for `COc1ccc(OC)c(-c2cc(C(=O)N3CCN(Cc4ccsc4)CC3)n(C)n2)c1`, the RP-LC retention time was found to be 580 s.

In turn, `O=C1C(c2cccs2)N(Cc2ccc3c(c2)OCO3)C(=O)CN1c1ccccc1` (stereo unspecified) had an RP-LC retention time of 899 s.

`COc1ccccc1N1CCN(CCN2C(=O)N=C3C(=Nc4ccccc43)C2=O)CC1` had an RP-LC retention time of 705 s.

Compound `COc1cc(-c2noc(C3CC(=O)N(c4ccc(C)c(Cl)c4)C3)n2)cc(OC)c1OC` (stereo unspecified) came in with an RP-LC retention time of 1050 s.

As to `O=c1c2nnc(SCc3ccccc3)n2ccn1-c1ccc(Br)cc1`, the RP-LC retention time was 812 s.

Turning to `O=C(c1csc(N2CCN(c3ccc(F)cc3)CC2)n1)N1CCCC1`, the RP-LC retention time came out at 963 s.

In the case of `COc1ccc(-c2csc(Nc3ccc(C)cc3)n2)cc1`, the RP-LC retention time was 1190 s.

Compound `COc1ccc(NC(=O)N2CCN(Cc3nc4cc(Cl)ccc4o3)CC2)cc1OC` returned an RP-LC retention time of 686 s.

The compound `COCc1nncn1C1CN(C(=O)Nc2ccc(Cl)cc2C(F)(F)F)C1` registered an RP-LC retention time of 963 s.

As to `COc1ccc(-c2noc(C3CC(=O)N(c4ccc5c(c4)OCO5)C3)n2)cc1` (stereo unspecified), the RP-LC retention time was 881 s.

As to `Cc1cc(C(=O)NC(C)C)nn1C`, the RP-LC retention time came to 628 s.

`O=C(Nc1ccc2cn[nH]c2c1)c1ccc2nc[nH]c2c1` gave an RP-LC retention time of 541 s.

`O=C(CSc1nc(-c2cccc([N+](=O)[O-])c2)cs1)NCc1ccccc1` yielded an RP-LC retention time of 890 s.

With `CCCS(=O)(=O)N1CCC2(CC1)CC(OCc1ccccc1)CCO2` (stereo unspecified), the RP-LC retention time came to 984 s.

As for `Cc1cc(=O)n(CC(=O)NCc2ccccc2)c(N2CCCCC2)n1`, the RP-LC retention time came to 652 s.

`COc1cc(C(=O)N2CCCC2c2nc(-c3ccccc3)no2)cc(OC)c1OC` (stereo unspecified) had an RP-LC retention time of 910 s.

As to `Cc1cc(-c2nn3c(C4CCCCC4)nnc3s2)c2ccccc2n1`, the RP-LC retention time turned out to be 949 s.

In turn, `O=C(Nc1ccc(N2CCOCC2)cc1)C1CCN(c2cncnc2N2CCCC2)CC1` had an RP-LC retention time of 602 s.

Compound `CCn1ncc(NC(=O)c2ccccc2F)c(N2CCOCC2)c1=O` displayed an RP-LC retention time of 842 s.

`CCOc1ccc2nc(C(=O)NC3CC3)cn2n1` came in with an RP-LC retention time of 697 s.

Compound `O=C(c1ccsc1)N1CC(Oc2ccc(-c3nc(-c4ccccc4)no3)cc2)C1` showed an RP-LC retention time of 1120 s.

Regarding `Cc1cc2[nH]c(C(=O)Nc3ccc(F)c(F)c3)c(CN3CCOCC3)c2s1`, the RP-LC retention time was found to be 740 s.

In the case of `N#Cc1ccc(CN2C[C@@H](CO)[C@H](c3nc(C4CC4)no3)C2)cc1`, the RP-LC retention time came out at 600 s.

Take `COc1ccccc1C(=O)N1CCC2(CC1)N=C(c1ccc(Cl)cc1)NO2`: the RP-LC retention time amounted to 865 s.

On to `CCOC(=O)C(=O)Nc1cccc(F)c1`, for which the RP-LC retention time amounted to 723 s.

Take `O=C(Nc1cccc(Cl)c1)N1CCN(CCn2c(-c3ccncc3)nc3cccnc32)CC1`: the RP-LC retention time is 623 s.

In turn, `FC(F)(F)c1nc(N2CCN(Cc3ccccc3)CC2)nc2c1CCCCC2` registered an RP-LC retention time of 885 s.
